The values below come from ChEMBL document CHEMBL1151581, “New dipeptide isosteres useful for the inhibition of HIV-1 protease” (Bioorg Med Chem Lett, 1994).

The IC50 is the concentration at which inhibition is half-maximal. Low values mean greater potency, high ones weaker potency.

The target of assay [1] is Human immunodeficiency virus type 1 protease (Human immunodeficiency virus 1, UniProt Q72874). Kind of assay: Concentration required for in vitro inhibition of HIV-1 protease.
For the next assay, the system named is CCRF-CEM. In words: Concentration required for antiviral activity using infected CEM cells. Format: functional, cell-based. Particulars: Homo sapiens.

For `CC(C)(C)NC(=O)c1cc2ccccc2cc1C[C@@H](O)[C@H](Cc1ccccc1)NC(=O)[C@H](CC(N)=O)NC(=O)c1ccc2ccccc2n1`, the values for the concentration for half-maximal inhibition (IC50) (in assay [1]; in the assay with CCRF-CEM) were 149 nM and 980 nM, respectively. Compound `Cc1ccc(C[C@@H](O)[C@H](Cc2ccccc2)NC(=O)[C@H](CC(N)=O)NC(=O)c2ccc3ccccc3n2)c(C(=O)NC(C)(C)C)c1` registered an IC50 with CCRF-CEM of 20 nM. As to `Cc1ccc(C(=O)NC(C)(C)C)c(C[C@@H](O)[C@H](Cc2ccccc2)NC(=O)[C@H](CC(N)=O)NC(=O)c2ccc3ccccc3n2)c1`, the IC50 in assay [1] was 2.2 nM; in the assay on CCRF-CEM, 610 nM. In the same order, the values of `Cc1cccc(C[C@@H](O)[C@H](Cc2ccccc2)NC(=O)[C@H](CC(N)=O)NC(=O)c2ccc3ccccc3n2)c1C(=O)NC(C)(C)C` are 28 nM and 920 nM. For `CC(C)(C)NC(=O)c1c(C[C@@H](O)[C@H](Cc2ccccc2)NC(=O)[C@H](CC(N)=O)NC(=O)c2ccc3ccccc3n2)ccc2ccccc12`, in that order: 3.5 nM and 190 nM.
